According to PMC8711236 (Biochemistry, 2021):

Target: Cytochrome P450 3A4 (CYP3A4) (Homo sapiens, UniProt P08684)
Assay: UV-vis spectral equilibrium titration
Format: binding

Sequence of Cytochrome P450 3A4 (CYP3A4) (P08684 14-503): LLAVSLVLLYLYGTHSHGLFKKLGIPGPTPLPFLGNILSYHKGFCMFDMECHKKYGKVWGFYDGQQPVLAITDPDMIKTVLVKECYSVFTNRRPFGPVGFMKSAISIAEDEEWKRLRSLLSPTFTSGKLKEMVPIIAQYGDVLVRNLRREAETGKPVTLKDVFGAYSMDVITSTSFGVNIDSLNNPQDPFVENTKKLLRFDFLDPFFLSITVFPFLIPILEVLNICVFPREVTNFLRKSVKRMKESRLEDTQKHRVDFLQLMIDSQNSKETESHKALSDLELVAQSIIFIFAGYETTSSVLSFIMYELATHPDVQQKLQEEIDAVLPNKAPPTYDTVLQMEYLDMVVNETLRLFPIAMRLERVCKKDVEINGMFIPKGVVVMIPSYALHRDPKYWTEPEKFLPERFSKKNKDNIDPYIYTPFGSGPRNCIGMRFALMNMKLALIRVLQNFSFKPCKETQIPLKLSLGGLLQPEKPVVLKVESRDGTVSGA
Sequence of Cytochrome P450 3A4 (CYP3A4) (P00388 2-678 partner): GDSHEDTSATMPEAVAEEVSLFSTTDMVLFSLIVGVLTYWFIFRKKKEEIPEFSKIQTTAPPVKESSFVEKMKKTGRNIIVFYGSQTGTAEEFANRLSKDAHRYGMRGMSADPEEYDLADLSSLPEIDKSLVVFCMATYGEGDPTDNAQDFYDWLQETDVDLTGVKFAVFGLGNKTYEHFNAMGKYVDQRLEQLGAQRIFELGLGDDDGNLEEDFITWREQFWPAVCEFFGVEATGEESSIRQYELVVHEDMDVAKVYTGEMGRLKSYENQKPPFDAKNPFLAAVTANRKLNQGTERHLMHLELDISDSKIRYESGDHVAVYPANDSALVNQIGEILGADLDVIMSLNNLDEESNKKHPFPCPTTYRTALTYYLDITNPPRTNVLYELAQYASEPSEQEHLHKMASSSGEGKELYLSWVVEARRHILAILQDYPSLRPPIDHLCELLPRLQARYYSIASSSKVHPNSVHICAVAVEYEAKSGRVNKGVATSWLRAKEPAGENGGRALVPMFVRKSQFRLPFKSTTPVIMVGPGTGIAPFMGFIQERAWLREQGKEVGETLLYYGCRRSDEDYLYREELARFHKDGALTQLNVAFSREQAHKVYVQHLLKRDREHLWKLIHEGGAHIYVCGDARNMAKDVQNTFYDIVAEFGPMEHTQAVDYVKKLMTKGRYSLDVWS

CC(=O)[C@H]1CC[C@H]2[C@@H]3CCC4=CC(=O)CC[C@]4(C)[C@H]3CC[C@]12C [PRG, progesterone]
Kd: 35 µM
